In patent US8613914B2, “Peptidomimetic sulfamide compounds and antiviral uses thereof” (Novartis AG, priority 2009, dated 2013):

Target: HCV NS3-4A serine protease (full-length NS3-4A protein) (Hepatitis C virus genotype 1a (isolate 1) (HCV), UniProt P26664)
Assay: HCV NS3-4A protease assay
Format: biochemical, HCV genotype 1a
Conditions: strain HCV-1, fluorogenic peptide substrate, read-out: Protease assay Ex. 12 IC50
Experimental: The inhibitory activity of certain compounds of Table A against HCV NS3-4A serine protease is determined in a homogenous assay using the full-length NS3-4A protein (genotype 1a, strain HCV-1) and a commercially available internally-quenched fluorogenic peptide substrate as described by Taliani, M., et al. 1996 Anal. Biochem. 240:60-67, which is incorporated by reference in its entirety.

HCV NS3-4A serine protease (full-length NS3-4A protein), sequence (P26664 1027-1657): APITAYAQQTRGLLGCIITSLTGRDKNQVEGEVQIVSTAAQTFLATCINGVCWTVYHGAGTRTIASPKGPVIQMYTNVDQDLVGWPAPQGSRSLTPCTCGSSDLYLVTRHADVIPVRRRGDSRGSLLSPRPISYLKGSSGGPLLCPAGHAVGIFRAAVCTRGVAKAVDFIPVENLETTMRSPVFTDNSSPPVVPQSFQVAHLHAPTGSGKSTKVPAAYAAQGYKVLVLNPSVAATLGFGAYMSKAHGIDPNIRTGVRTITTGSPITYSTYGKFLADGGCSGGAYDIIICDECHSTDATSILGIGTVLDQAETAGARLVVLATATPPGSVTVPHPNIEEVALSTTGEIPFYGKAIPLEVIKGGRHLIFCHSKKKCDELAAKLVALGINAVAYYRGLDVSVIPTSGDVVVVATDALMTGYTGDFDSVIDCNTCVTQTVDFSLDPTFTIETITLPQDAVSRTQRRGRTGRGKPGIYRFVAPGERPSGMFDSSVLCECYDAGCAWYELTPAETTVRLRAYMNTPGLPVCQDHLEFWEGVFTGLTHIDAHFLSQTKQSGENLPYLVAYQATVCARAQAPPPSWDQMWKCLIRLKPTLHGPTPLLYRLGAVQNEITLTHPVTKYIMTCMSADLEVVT
HCV NS3-4A serine protease (full-length NS3-4A protein), sequence (P26664 1658-1711 partner): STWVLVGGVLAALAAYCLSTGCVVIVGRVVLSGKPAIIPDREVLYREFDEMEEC

`C=C[C@@H]1C[C@]1(NC(=O)[C@@H]1C[C@@]2(CN1C(=O)[C@@H](NC(=O)[C@@H](NC(=O)c1cccc(N(C)C)n1)C1CCCCC1)C(C)(C)C)C(C)(C)C21CCC1)C(=O)NS(=O)(=O)N1CCCC1` [Compound 69, (5R,8S)-7-[(2S)-2-{[(2S)-2-cyclohexyl-2-({[6-(dimethylamino)pyridin-2-yl]carbonyl}amino)acetyl]amino}-3,3-dimethylbutanoyl]-10,10-dimethyl-N-{(1R,2S)-1-[(pyrrolidin-1-ylsulfonyl)carbamoyl]-2-vinylcyclopropyl}-7-azadispiro[3.0.4.1]decane-8-carboxamide] was tested, and the IC50 was 50 nM.
`C=C[C@@H]1C[C@]1(NC(=O)[C@@H]1C[C@@]2(CN1C(=O)[C@@H](NC(=O)[C@@H](NC(=O)[C@@H]1CCCN1C1CCCC1)C1CCCCC1)C(C)(C)C)C(C)(C)C21CCC1)C(=O)NS(=O)(=O)N1CCCC1` [Compound 28, (5R,8S)-7-[(2S)-2-{[(2S)-2-cyclohexyl-2-({[(2S)-1-cyclopentylpyrrolidin-2-yl]carbonyl}amino)acetyl]amino}-3,3-dimethylbutanoyl]-10,10-dimethyl-N-{(1R,2S)-1-[(pyrrolidin-1-ylsulfonyl)carbamoyl]-2-vinylcyclopropyl}-7-azadispiro[3.0.4.1]decane-8-carboxamide] was tested, and the IC50 was 2 nM.
`C=C[C@@H]1C[C@]1(NC(=O)[C@@H]1C[C@@]2(CN1C(=O)[C@@H](NC(=O)[C@@H](NC(=O)[C@@H]1CCCCN1C(C)C)C1CCCCC1)C(C)(C)C)C(C)(C)C21CCC1)C(=O)NS(=O)(=O)NC1CCC1` [Compound 57, (5R,8S)-N-[(1R,2S)-1-{[(cyclobutylamino)sulfonyl]carbamoyl}-2-vinylcyclopropyl]-7-[(2S)-2-{[(2S)-2-cyclohexyl-2-({[(2S)-1-isopropylpiperidin-2-yl]carbonyl}amino)acetyl]amino}-3,3-dimethylbutanoyl]-10,10-dimethyl-7-azadispiro[3.0.4.1]decane-8-carboxamide] gave an IC50 of 6.5 nM.
With `C=C[C@@H]1C[C@]1(NC(=O)[C@@H]1C[C@@]2(CN1C(=O)[C@@H](NC(=O)[C@@H](NC(=O)[C@H]1CCCCN1C)C1CCCCC1)C(C)(C)C)C(C)(C)C21CCC1)C(=O)NS(=O)(=O)N1CCCC1` [Compound 48, (5R,8S)-7-[(2S)-2-{[(2S)-2-cyclohexyl-2-({[(2R)-1-methylpiperidin-2-yl]carbonyl}amino)acetyl]amino}-3,3-dimethylbutanoyl]-10,10-dimethyl-N-{(1R,2S)-1-[(pyrrolidin-1-ylsulfonyl)carbamoyl]-2-vinylcyclopropyl}-7-azadispiro[3.0.4.1]decane-8-carboxamide] the IC50 was 0.9 nM.
Work on `C=C[C@@H]1C[C@]1(NC(=O)[C@@H]1C[C@@]2(CN1C(=O)[C@@H](NC(=O)[C@@H](NC(=O)[C@@H]1CCCCN1C(C)C)C1CCCCC1)C(C)(C)C)C(C)(C)C21CCC1)C(=O)NS(=O)(=O)N(C)CC` [Compound 170, (5R,8S)-7-[(2S)-2-{[(2S)-2-cyclohexyl-2-({[(2S)-1-isopropylpiperidin-2-yl]carbonyl}amino)acetyl]amino}-3,3-dimethylbutanoyl]-N-[(1R,2S)-1-({[ethyl(methyl)amino]sulfonyl}carbamoyl)-2-vinylcyclopropyl]-10,10-dimethyl-7-azadispiro[3.0.4.1]decane-8-carboxamide] yielded an IC50 of 0.5 nM.
`C=C[C@@H]1C[C@]1(NC(=O)[C@@H]1C[C@@]2(CN1C(=O)[C@@H](NC(=O)[C@@H](NC(=O)c1cc3cc(OC)ccc3[nH]1)C1CCCCC1)C(C)(C)C)C(C)(C)C21CCC1)C(=O)NS(=O)(=O)N1CCCC1` [Compound 176, (5R,8S)-7-{(2S)-2-[(cyclohexyl{[(5-methoxy-1H-indol-2-yl)carbonyl]amino}acetyl)amino]-3,3-dimethylbutanoyl}-10,10-dimethyl-N-{(1R,2S)-1-[(pyrrolidin-1-ylsulfonyl)carbamoyl]-2-vinylcyclopropyl}-7-azadispiro[3.0.4.1]decane-8-carboxamide] gave an IC50 of 25 nM.
`C=C[C@@H]1C[C@]1(NC(=O)[C@@H]1C[C@@]2(CN1C(=O)[C@@H](NC(=O)[C@@H](NC(=O)c1[nH]c(C)c(C)c1C(C)=O)C(C)(C)C)C(C)(C)C)C(C)(C)C21CCC1)C(=O)NS(=O)(=O)N1CCCC1` [Compound 161, (5R,8S)-7-[(2S)-2-{[(2S)-2-{[(3-acetyl-4,5-dimethyl-1H-pyrrol-2-yl)carbonyl]amino}-3,3-dimethylbutanoyl]amino}-3,3-dimethylbutanoyl]-10,10-dimethyl-N-{(1R,2S)-1-[(pyrrolidin-1-ylsulfonyl)carbamoyl]-2-vinylcyclopropyl}-7-azadispiro[3.0.4.1]decane-8-carboxamide] was tested, and the IC50 was 65 nM.
`C=C[C@@H]1C[C@]1(NC(=O)[C@@H]1C[C@@]2(CN1C(=O)[C@@H](NC(=O)[C@@H](NC(=O)[C@@H]1CCCCN1CC(F)F)C1CCCCC1)C1CCOCC1)C(C)(C)C21CCC1)C(=O)NS(=O)(=O)N1CCCC1` [Compound 74, (5R,8S)-7-[(2S)-2-{[(2S)-2-cyclohexyl-2-({[(2S)-1-(2,2-difluoroethyl)piperidin-2-yl]carbonyl}amino)acetyl]amino}-2-(tetrahydro-2H-pyran-4-yl)acetyl]-10,10-dimethyl-N-{(1R,2S)-1-[(pyrrolidin-1-ylsulfonyl)carbamoyl]-2-vinylcyclopropyl}-7-azadispiro[3.0.4.1]decane-8-carboxamide] was tested, and the IC50 was 65 nM.
For `C=C[C@@H]1C[C@]1(NC(=O)[C@@H]1C[C@@]2(CN1C(=O)[C@@H](NC(=O)[C@@H](NC(=O)[C@H]1CCCN1CC)C1CCCCC1)C(C)(C)C)C(C)(C)C21CCC1)C(=O)NS(=O)(=O)N1CCCC1` [Compound 38, (5R,8S)-7-[(2S)-2-{[(2S)-2-cyclohexyl-2-({[(2R)-1-ethylpyrrolidin-2-yl]carbonyl}amino)acetyl]amino}-3,3-dimethylbutanoyl]-10,10-dimethyl-N-{(1R,2S)-1-[(pyrrolidin-1-ylsulfonyl)carbamoyl]-2-vinylcyclopropyl}-7-azadispiro[3.0.4.1]decane-8-carboxamide], the IC50 was 3.5 nM.
`C=C[C@@H]1C[C@]1(NC(=O)[C@@H]1C[C@@]2(CN1C(=O)[C@@H](NC(=O)[C@@H](NC(=O)[C@@H]1CCCN1CC)C1CCCCC1)C(C)(C)C)C(C)(C)C21CCC1)C(=O)NS(=O)(=O)N(CC)CC` [Compound 63, (5R,8S)-7-[(2S)-2-{[(2S)-2-cyclohexyl-2-({[(2S)-1-ethylpyrrolidin-2-yl]carbonyl}amino)acetyl]amino}-3,3-dimethylbutanoyl]-N-[(1R,2S)-1-{[(diethylamino)sulfonyl]carbamoyl}-2-vinylcyclopropyl]-10,10-dimethyl-7-azadispiro[3.0.4.1]decane-8-carboxamide] was tested, and the IC50 was 1.2 nM.
`C=C[C@@H]1C[C@]1(NC(=O)[C@@H]1C[C@@]2(CN1C(=O)[C@@H](NC(=O)[C@@H](NC(=O)c1nccc3ccccc13)C1CCCCC1)C(C)(C)C)C(C)(C)C21CCC1)C(=O)NS(=O)(=O)N1CCCC1` [Compound 195, (5R,8S)-7-[(2S)-2-({cyclohexyl[(isoquinolin-1-ylcarbonyl)amino]acetyl}amino)-3,3-dimethylbutanoyl]-10,10-dimethyl-N-{(1R,2S)-1-[(pyrrolidin-1-ylsulfonyl)carbamoyl]-2-vinylcyclopropyl}-7-azadispiro[3.0.4.1]decane-8-carboxamide] gave an IC50 of 75 nM.
